Target: Indoleamine 2,3-dioxygenase 1 (Homo sapiens, UniProt P14902)
Assay: Enzymatic Assay
Procedure: Recombinant human IDO1 (rhIDO1) was expressed and purified from cultures of EC538 strain of E. coli transformed with pREP4 and pQE9-IDO plasmid. Reaction mixes were set up in 384-well microplates containing 50 mM phosphate buffer, 10 mM ascorbic, 10 μM methylene blue, 100 μg/mL catalase, 80 μM TRP, 0.01% Tween 20 (v/v) mixed with rhIDO1 (15 μL) at a final concentration of 9 nM in a total volume of 30 μL assay medium. The plates were incubated at 37° C. for 30 min, and the enzymatic reaction was terminated by adding piperidine (200 mM) and heated at 65° C. for 20 min. Fluorescence intensity was read at λex 400 nm and λem 500 nm. Test compounds were dissolved in 100% DMSO and pre-diluted in assay medium prior to adding rhIDO1.

Chain of Indoleamine 2,3-dioxygenase 1 (P14902 whole entry): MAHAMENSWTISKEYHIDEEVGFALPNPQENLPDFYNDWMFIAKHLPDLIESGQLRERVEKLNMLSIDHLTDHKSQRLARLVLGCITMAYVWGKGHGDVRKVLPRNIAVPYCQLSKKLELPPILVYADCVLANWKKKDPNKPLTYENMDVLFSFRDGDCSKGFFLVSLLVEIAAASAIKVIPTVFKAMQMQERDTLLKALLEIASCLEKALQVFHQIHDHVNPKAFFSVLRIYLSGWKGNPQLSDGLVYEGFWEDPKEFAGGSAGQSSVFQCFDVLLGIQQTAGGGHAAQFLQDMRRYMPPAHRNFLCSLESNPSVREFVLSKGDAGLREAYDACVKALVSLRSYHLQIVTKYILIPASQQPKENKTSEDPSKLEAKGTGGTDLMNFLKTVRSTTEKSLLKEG

Cc1nc2onc(N)c2c(C)c1Cl [US11414428, Compound 1]
IC50: in the range around 5.5 µM

From BindingDB's records for patent US11414428 (Auckland UniServices Limited, 2022)
